Assay results: PMC10945555, “Improving Activity of New Arylurea Agents against Multidrug-Resistant and Biofilm-Producing Staphylococcus epidermidis” (ACS Medicinal Chemistry Letters, 2024)
In brackets after ≈: the same amount, converted by molar mass.

Tests used:
Format in all cases: cell-based
[1] = tested on: Staphylococcus epidermidis ATCC 12228; test: MIC, broth microdilution, MSSE reference strain; conditions: ATCC12228, Staphylococcus epidermidis ATCC 12228, read-out: MIC MSSE
Excerpt: These strains included susceptible, multidrug-resistant, and biofilm-producing strains of S. epidermidis and S. aureus (MSSE, MDR/BPSE, and MDR/BPSA, respectively). The cornerstone antibiotic linezolid served as a positive control (Table 1). The impact of structural modifications at the aryloxy fragment and the aromatic moiety bound to the propyl linker on the inhibitory activity was initially investigated. […] Further optimization focused on evaluating the impact of the type of substituent and its position on the arylsulfonamide fragment’s activity.
(§1) 2 Biological assay protocols
(§2) Microbiological tests were carried out under aseptic conditions in a laminar chamber of the 2nd […]
(§3) (BioTectum 1.2, Alchem Poland). The assessment of antimicrobial activity was carried out for final compounds in the form of free bases, soluble in DMSO (Merck, Germany), at the initial […]
(§4) concentration of 1 mg/mL. […]
(§5) were provided by Cayman Chemical, USA.
(§6) The activity of all newly synthesized compounds was tested in vitro on a panel of selected reference strains from the American Type Culture Collection (ATCC) of Gram-positive […]
(§7) 2.2 Effect of evaluated compounds on planktonic cells
(§8) The susceptibility of three reference bacterial strains (Staphylococcus epidermidis ATCC […]
(§9) Table S1) and 81 clinical MDR S. epidermidis (Table S2) to the tested compounds was assessed by determining the MIC value (Minimal Inhibitory Concentration) by microdilution in a liquid medium in 96-well flat-bottom cell culture plates (Nest Biotechnology Scientific, USA). The antibacterial properties of the compo unds were tested in the concentration range from 50 µg/mL to 0.1 µg/mL by making a series of double dilutions of the compound in liquid Mueller -Hinton II Broth Cation Adjusted (MHB II, BBL TM, USA) according to the European Committee on […]
(§10) Antimicrobial Susceptibility Testing guidelines (EUCAST).2,3 The determinations were performed twice. The MIC50 and MIC90 values were determined for each of the tested

H9c2 cells = test: Cytotoxicity, MTT assay, cardiomyocytes; conditions: Rattus norvegicus, 24 h, n = 3
Procedure: The following cell models were used in the research: rat cardiomyocytes (H9c2 line) and human skin fibroblasts (BJ line). All cell lines used in the work are commercially available and were purchased from ATCC banks (the American Type Culture Collection, Manassas, VI, USA). Cell cultures were carried out in an incubator under standard conditions (37°C, 5% CO 2).
Culture media (Dulbecco's Modified Eagle's Medium -DMEM (H9c2) and Eagle's Minimum Essential Medium-EMEM (BJ) were supplemented with 10% bovine serum and a 1% mixture of penicillin and streptomycin antibiotics. […]
doxorubicin (a cytotoxic drug) were used as reference and positive control, respectively. […]
incubated with studied compound in appropriate concentration for next 24 h. Then MTT solution (5 mg/mL) was transferred into culture medium of incubated cells. After 3 h, once dark crystals of formazan were produced in cells, medium was aspirated and 100 μ L of DMSO was added to dissolve formazan. Absorbance of DMSO solution was read on a multiwell plate reader (Spectra Max iD3, Molecular Devices) at 570 nm. In order to determine viability, absorbance of experimental wells was divided by absorbance of contro l well (not treated) and multiplied by 100 (%). Three separate experiments were performed. IC 50 was calculated using non-linear regression method in OriginPro software. […]

[2] = tested on: Acinetobacter baumannii ATCC 19606; test: MIC, Gram-negative reference strain; conditions: for MIC: Acinetobacter baumannii, ATCC19606
Procedure: as §1, §2, §3, §4, §5, §6, §7, §8, §9, §10

[3] = tested on: Pseudomonas aeruginosa ATCC 27853; test: MIC, Gram-negative reference strain; conditions: for MIC: Pseudomonas aeruginosa, ATCC27853, read-out: MIC P. aeruginosa
Procedure: as §1, §2, §3, §4, §5, §6, §7, §8, §9, §10

[4] = tested on: Escherichia coli ATCC 25922; test: MIC, Gram-negative reference strain; conditions: for MIC: Escherichia coli, ATCC25922
Procedure: as §1, §2, §3, §4, §5, §6, §7, §8, §9, §10

[5] = tested on: Staphylococcus epidermidis no. 44; test: Real-time bacterial growth analysis; conditions: real-time growth analysis and MBC/MIC ratio
Procedure: (reduction of navy blue resazurin to pink resorufin in the presence of metabolically active cells) compared to the negative (sterile medium without bacteria and compounds) and positive control (medium with bacteria).9 The minimal biofilm eradication concentration value was analyzed using a high throughput screening the MBEC Assay® Kit (Innovotech, Canada), formerly the Calgary Biofilm Device, according to the manufacturer's insert.10
2.4.1 Determination of biofilm viability by confocal laser scanning microscope (CLSM) […]
by the selected strains was observed using the confocal laser scanning microscopy technique (CLSM, model Inverted Microscope for Industry Leica DMi8, Wetzlar, Germany). Biofilms were grown on Millicell® EZ SLIDE slides (Merck, Germany)11 and incubated with FilmTracer™ SYPRO™ Ruby Biofilm Matrix Stain (ThermoFisher Scientific, USA).12 2.5 Evaluation of bacteriostatic/bactericidal properties […]
determining MBC (Minimal Bactericidal Concentration) values. The study was conducted in accordance with the guidelines of the Clinical and Laboratory Standards Institute (CLSI).13 The MBC value was assumed to be the concentration of the compound inhibiting the growth of strains in 99.9%. Then, the value of the MBC/MIC ratio was calculated to assess its bactericidal or bacteriostatic activity. […]
compound 25 and linezolid expressed as changes in OD600 over time. […]

SMILES | MIC [1] | IC50 (H9c2 cells) | MIC A. baumannii [2] | MIC [2] | MIC P. aeruginosa [3] | MIC [3] | MIC E. coli [4] | MIC [4] | bacteriostatic/bactericidal properties [5]
O=S(=O)(NC1CCN(CCC(Oc2ccc(C(F)(F)F)cc2)c2ccccc2)CC1)c1cccc(Cl)c1 (stereo not drawn) [Compound 12] | ≤ 6.25 µg/mL | 14.2 µg/mL (≈ 25.7 µM) |  |  |  |  |  |  | 
O=S(=O)(NC1CCN(CCC(Oc2ccc(C(F)(F)F)cc2)c2cccs2)CC1)c1cccc(Cl)c1 (stereo not drawn) [Compound 14] |  | 28 µg/mL (≈ 50.1 µM) |  |  |  |  |  |  | 
O=S(=O)(NC1CCN(CCC(Oc2ccc(C(F)(F)F)cc2)c2cccs2)CC1)c1cccc(C(F)(F)F)c1 (stereo not drawn) [Compound 21] | ≤ 6.25 µg/mL |  |  |  |  |  |  |  | 
O=C(Nc1cccc(Cl)c1)NC1CCN(CCC(Oc2ccc(C(F)(F)F)cc2)c2cccs2)CC1 (stereo not drawn) [Compound 25] |  | 26.9 µg/mL (≈ 50 µM) | exceeded 50 µg/mL | 50 µg/mL (≈ 92.9 µM) | exceeded 50 µg/mL | 50 µg/mL (≈ 92.9 µM) | exceeded 50 µg/mL | 50 µg/mL (≈ 92.9 µM) | bacteriostatic properties
CC(=O)NC[C@H]1CN(c2ccc(N3CCOCC3)c(F)c2)C(=O)O1 [linezolid, reference compound] | 0.8 µg/mL (≈ 2.37 µM) | 16.9 µg/mL (≈ 50.1 µM) |  | 50 µg/mL (≈ 148 µM) |  | 50 µg/mL (≈ 148 µM) |  | 50 µg/mL (≈ 148 µM) | bacteriostatic properties
